Experimental data as given in PMC5540273, “Progress towards a public chemogenomic set for protein kinases and a call for contributions” (PLoS ONE, 2017).

How the values were obtained:
Assay in all cases: KINOMEscan competition binding
[1] = target: T1, EPHB2 (Homo sapiens, UniProt P29323); settings: read-out: %Inh EPHB2
T1 sequence (P29323 19-1055): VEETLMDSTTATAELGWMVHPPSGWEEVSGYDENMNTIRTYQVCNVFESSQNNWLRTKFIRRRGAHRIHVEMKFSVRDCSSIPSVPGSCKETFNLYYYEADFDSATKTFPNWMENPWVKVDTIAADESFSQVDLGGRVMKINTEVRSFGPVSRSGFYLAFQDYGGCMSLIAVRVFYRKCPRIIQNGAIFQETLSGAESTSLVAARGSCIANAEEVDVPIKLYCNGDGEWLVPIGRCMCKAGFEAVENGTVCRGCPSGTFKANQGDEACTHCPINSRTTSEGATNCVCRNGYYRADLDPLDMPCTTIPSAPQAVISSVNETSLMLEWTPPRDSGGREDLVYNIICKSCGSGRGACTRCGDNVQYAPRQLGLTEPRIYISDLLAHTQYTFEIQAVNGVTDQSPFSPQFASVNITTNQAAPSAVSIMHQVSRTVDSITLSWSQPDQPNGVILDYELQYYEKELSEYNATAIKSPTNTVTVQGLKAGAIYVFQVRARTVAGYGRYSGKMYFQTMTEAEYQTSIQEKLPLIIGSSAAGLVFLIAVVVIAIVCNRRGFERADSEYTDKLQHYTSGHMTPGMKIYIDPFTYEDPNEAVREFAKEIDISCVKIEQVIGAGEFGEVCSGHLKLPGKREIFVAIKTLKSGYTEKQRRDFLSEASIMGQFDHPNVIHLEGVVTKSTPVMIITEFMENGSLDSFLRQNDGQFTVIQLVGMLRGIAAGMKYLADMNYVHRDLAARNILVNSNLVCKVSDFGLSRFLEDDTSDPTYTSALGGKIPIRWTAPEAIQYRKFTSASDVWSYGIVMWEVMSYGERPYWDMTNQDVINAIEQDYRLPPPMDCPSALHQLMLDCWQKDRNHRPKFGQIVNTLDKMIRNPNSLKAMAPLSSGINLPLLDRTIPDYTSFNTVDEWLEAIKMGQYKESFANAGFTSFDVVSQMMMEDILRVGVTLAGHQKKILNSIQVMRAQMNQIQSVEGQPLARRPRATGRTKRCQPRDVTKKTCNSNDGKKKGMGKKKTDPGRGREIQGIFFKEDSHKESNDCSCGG

[2] = target: T2, ASK2 (Homo sapiens, UniProt O95382); settings: read-out: %Inh ASK2
T2 sequence (O95382 1-1288): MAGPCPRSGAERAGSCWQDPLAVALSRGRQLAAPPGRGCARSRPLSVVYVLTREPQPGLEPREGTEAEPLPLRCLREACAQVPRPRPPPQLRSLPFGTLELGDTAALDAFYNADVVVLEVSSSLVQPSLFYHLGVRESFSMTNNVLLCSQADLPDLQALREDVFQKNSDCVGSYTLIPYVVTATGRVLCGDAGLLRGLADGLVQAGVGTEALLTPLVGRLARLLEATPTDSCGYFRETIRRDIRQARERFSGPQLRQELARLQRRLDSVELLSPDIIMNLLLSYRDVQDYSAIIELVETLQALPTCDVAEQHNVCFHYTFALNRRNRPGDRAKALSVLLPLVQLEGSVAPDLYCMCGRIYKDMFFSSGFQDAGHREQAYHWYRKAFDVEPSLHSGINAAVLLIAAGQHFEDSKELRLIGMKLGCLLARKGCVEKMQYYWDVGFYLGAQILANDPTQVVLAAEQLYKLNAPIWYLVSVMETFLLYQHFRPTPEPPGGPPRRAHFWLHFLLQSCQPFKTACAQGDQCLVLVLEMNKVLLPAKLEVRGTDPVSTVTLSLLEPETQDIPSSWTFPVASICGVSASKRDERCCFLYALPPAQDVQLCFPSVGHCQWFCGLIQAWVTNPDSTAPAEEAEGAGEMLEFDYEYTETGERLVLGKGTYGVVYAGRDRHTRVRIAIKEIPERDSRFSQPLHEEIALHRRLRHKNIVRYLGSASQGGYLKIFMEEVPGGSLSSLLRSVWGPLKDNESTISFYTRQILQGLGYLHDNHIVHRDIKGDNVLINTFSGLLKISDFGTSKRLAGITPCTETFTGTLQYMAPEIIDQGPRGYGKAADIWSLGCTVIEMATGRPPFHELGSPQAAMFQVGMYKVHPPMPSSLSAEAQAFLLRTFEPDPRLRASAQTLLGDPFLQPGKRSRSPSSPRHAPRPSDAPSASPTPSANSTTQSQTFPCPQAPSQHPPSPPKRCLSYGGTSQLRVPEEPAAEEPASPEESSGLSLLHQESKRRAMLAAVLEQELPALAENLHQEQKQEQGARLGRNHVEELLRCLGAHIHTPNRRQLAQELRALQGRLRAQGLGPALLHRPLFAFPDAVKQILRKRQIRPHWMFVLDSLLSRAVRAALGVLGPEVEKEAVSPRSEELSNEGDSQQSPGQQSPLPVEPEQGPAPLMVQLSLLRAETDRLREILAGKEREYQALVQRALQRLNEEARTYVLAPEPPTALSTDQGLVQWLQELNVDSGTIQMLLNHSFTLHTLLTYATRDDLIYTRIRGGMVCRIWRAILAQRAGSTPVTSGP

[3] = target: CSNK1D (Homo sapiens, UniProt P48730); settings: read-out: %Inh CSNK1D
Sequence of CSNK1D (P48730 whole entry): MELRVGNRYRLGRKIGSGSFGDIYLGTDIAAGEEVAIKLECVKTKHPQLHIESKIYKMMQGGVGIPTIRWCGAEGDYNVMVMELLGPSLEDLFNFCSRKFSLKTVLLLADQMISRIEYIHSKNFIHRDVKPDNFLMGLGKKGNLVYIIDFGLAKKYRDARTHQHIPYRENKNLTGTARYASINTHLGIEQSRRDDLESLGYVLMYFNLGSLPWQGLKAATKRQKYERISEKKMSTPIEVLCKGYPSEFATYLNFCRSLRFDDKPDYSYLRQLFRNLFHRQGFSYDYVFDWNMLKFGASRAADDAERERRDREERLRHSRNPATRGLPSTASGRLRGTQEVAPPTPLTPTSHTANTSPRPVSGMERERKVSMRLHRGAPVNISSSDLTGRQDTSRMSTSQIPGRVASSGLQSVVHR

[4] = target: CSNK1E (Homo sapiens, UniProt P49674); settings: read-out: %Inh CSNK1E
Sequence of CSNK1E (P49674 whole entry): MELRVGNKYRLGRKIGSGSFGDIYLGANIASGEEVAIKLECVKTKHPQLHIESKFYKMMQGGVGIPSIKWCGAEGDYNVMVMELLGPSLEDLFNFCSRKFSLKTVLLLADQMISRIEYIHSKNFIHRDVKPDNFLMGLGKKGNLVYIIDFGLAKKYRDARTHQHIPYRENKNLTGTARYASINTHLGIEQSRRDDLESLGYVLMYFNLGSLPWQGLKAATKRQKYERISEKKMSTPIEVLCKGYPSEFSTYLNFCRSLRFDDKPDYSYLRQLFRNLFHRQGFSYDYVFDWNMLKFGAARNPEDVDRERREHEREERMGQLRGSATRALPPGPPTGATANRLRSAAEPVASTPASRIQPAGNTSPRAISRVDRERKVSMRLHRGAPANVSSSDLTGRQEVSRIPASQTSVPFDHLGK

[5] = target: ERK3 (Homo sapiens, UniProt Q16659); settings: read-out: %Inh ERK3
Sequence of ERK3 (Q16659 whole entry): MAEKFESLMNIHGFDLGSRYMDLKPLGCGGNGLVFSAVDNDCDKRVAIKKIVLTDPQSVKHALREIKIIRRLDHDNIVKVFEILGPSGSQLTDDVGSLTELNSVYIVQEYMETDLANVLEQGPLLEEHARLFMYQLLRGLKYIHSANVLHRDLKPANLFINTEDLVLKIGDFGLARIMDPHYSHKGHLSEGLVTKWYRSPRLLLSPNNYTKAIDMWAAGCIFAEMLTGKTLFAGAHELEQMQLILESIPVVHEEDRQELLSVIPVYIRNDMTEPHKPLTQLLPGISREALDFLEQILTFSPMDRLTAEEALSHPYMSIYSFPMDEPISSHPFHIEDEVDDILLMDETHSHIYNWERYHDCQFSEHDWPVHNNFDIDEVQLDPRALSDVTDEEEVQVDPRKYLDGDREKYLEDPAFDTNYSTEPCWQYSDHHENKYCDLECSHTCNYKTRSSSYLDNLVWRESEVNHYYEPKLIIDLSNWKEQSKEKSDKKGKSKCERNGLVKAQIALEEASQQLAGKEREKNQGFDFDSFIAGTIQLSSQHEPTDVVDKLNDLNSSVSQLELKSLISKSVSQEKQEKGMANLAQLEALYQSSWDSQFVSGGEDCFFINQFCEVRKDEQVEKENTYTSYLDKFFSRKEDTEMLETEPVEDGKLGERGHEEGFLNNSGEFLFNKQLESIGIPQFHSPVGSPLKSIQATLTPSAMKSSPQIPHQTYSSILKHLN

[6] = target: IGF1R (Homo sapiens, UniProt P08069); settings: read-out: %Inh IGF1R
Sequence of IGF1R (P08069 31-1367): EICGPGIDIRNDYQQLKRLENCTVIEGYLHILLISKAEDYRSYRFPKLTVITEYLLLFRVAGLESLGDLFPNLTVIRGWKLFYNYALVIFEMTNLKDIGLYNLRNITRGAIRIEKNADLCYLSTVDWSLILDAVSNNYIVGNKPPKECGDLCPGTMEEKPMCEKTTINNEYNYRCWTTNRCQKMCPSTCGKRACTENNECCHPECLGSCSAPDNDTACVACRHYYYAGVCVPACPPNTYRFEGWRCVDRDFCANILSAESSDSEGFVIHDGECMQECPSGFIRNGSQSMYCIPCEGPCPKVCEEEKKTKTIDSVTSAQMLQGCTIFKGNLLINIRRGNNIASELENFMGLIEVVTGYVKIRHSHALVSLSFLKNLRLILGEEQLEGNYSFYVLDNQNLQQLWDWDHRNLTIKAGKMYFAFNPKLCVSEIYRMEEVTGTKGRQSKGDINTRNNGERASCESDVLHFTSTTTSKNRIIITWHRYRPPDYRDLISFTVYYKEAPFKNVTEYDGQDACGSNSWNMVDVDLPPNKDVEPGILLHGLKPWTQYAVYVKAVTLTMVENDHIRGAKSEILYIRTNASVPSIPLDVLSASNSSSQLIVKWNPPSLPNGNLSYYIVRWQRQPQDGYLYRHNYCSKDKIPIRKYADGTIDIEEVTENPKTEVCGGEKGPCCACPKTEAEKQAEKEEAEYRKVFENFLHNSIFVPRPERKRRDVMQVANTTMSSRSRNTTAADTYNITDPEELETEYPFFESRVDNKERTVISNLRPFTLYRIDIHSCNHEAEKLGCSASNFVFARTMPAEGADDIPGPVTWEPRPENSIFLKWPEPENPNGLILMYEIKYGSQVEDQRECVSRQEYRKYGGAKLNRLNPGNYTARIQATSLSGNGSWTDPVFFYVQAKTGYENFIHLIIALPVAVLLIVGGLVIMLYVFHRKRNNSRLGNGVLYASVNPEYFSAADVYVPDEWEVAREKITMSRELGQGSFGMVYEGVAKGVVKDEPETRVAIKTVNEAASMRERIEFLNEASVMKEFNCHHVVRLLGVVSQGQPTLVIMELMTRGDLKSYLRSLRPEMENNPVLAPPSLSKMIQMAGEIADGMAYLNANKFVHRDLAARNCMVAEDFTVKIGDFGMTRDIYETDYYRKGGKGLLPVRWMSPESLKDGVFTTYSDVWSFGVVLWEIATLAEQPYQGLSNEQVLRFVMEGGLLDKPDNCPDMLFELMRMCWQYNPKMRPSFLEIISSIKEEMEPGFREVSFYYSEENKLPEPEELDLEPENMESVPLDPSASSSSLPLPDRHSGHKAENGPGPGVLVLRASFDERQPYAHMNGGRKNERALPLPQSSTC

[7] = target: ERBB2 (Homo sapiens, UniProt P04626); settings: read-out: %Inh ERBB2
Sequence of ERBB2 (P04626 23-1255): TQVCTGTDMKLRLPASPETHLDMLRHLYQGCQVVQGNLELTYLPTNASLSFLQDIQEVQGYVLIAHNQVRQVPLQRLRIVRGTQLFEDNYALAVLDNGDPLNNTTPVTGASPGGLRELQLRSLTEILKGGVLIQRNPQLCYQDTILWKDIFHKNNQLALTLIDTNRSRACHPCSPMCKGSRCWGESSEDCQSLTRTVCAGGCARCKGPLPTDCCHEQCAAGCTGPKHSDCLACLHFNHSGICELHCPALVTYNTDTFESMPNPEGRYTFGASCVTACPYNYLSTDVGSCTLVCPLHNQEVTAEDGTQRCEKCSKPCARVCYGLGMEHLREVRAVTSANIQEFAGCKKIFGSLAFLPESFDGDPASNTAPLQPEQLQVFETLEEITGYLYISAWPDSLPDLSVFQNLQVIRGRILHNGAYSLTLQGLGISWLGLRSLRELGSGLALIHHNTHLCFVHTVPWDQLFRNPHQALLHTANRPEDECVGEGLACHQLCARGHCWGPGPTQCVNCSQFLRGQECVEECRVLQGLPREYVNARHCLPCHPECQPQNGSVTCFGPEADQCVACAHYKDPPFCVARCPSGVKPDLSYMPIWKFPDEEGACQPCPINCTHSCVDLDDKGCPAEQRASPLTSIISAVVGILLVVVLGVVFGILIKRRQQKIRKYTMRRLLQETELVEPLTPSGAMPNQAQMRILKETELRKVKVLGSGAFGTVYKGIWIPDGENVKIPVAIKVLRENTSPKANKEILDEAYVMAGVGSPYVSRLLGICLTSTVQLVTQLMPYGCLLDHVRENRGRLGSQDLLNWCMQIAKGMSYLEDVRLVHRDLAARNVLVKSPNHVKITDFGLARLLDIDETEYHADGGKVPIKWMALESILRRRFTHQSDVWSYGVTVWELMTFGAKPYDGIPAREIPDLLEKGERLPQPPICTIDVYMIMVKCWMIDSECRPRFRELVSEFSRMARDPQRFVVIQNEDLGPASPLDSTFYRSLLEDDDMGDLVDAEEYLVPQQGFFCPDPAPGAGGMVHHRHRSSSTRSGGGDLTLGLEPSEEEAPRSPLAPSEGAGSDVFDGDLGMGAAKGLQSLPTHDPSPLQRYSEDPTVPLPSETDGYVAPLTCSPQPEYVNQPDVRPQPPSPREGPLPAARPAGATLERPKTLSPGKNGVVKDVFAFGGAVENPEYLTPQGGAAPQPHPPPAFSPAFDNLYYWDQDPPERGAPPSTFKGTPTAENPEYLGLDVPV

[8] = target: ERK5 (Homo sapiens, UniProt Q13164); settings: read-out: %Inh ERK5
Sequence of ERK5 (Q13164 whole entry): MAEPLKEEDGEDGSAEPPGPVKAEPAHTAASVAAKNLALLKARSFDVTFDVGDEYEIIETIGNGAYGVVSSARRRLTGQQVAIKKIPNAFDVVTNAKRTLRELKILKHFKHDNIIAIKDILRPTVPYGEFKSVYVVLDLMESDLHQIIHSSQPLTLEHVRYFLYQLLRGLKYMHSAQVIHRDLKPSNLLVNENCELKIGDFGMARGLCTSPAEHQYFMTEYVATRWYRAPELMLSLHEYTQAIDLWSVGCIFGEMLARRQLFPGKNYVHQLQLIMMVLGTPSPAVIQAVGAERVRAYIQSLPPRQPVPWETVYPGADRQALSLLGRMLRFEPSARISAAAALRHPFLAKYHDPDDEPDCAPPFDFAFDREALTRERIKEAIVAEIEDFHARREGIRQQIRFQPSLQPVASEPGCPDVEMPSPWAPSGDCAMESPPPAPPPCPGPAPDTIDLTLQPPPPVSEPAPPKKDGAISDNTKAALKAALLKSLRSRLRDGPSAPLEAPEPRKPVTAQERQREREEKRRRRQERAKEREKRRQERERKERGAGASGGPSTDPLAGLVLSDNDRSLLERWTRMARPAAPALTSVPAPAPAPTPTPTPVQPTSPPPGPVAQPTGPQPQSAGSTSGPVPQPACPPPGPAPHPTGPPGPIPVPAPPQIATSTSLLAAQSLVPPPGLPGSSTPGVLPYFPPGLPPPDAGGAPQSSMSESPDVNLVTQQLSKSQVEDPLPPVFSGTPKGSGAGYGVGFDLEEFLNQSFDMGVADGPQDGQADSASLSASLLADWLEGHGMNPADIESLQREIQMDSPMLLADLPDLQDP

[9] = target: EGFR (Homo sapiens, UniProt P00533); settings: read-out: %Inh EGFR

SMILES | inhibition at 1 µM [1] [%] | inhibition at 1 µM [2] [%] | inhibition at 1 µM [3] [%] | inhibition at 1 µM [4] [%] | inhibition at 1 µM [5] [%] | inhibition at 1 µM [6] [%] | inhibition at 1 µM [7] [%] | inhibition at 1 µM [8] [%] | inhibition at 1 µM [9] [%]
Cn1cc(-c2cnc(N)c3c(-c4ccc5c(c4)CCN5C(=O)Cc4ccccc4)csc23)cn1 [UNC10225012A] | 2 | 17 | 0 | 1 | 0 | 0 | 0 | 15 | 3
CS(=O)(=O)Cc1ccc(Nc2nccc(-c3c(-c4cccc(NC(=O)C5CCCCC5)c4)nn4ncccc34)n2)cc1 [UNC10225159A] | 3 | 34 | 0 | 20 | 0 | 68 | 25 | 0 | 68
Cc1ccc(NC(=O)Nc2cccc(C(F)(F)F)c2)cc1 [UNC10225187A] | 3 | 0 | 0 | 0 | 0 | 0 | 0 | 5 | 0
COc1cccc(OC)c1C(=O)Nc1cccc(-c2nn3ccccc3c2-c2ccnc(Nc3cccc(F)c3)n2)c1 [UNC10225310A] | 0 | 0 | 9 | 64 | 1 | 7 | 61 | 2 | 91.7
O=c1cc(N2CCOCC2)nc2n(Cc3cccc(Cl)c3Cl)c(C3CC3)nn12 [UNC10225469A] | 0 | 0 | 7 | 11 | 0 | 0 | 0 | 0 | 0
